Laboratory results taken from patent US20250032524A1, “BROAD SPECTRUM AMINOGLYCOSIDES AND USES THEREOF” (REVAGENIX, INC., priority 2022, published 2025).
Where two headings read alike, the source gives them in different places.

Tests used:
Format in all cases: cell-based
P. mirabilis = test: MIC broth microdilution (CLSI); details: Proteus mirabilis; strain APMI1048, MDR Clinical isolate (CDC CRE panel), CDC AR Bank 0159
In short: (§1)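 CLSI broth microdilution; cation-adjusted MHB; inoculum 5×10^5 CFU/mL final; 2-fold compound series; 35° C., ambient air, 18-24 h. MIC = lowest conc. with no visible growth (OD 600 nm<0.05). QC strains and neomycin run per CLSI.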

S. enterica = test: MIC broth microdilution (CLSI); details: Salmonella enterica, read-out: Activity (MIC)
In short: as §1

E. coli = test: MIC broth microdilution (CLSI); details: Escherichia coli
In short: as §1

P. aeruginosa [1] = test: MIC broth microdilution (CLSI); details: Pseudomonas aeruginosa
In short: as §1

C. freundii = test: MIC broth microdilution (CLSI); details: Citrobacter freundii, read-out: Activity (MIC)
In short: as §1

E. cloacae = test: MIC broth microdilution (CLSI); details: Enterobacter cloacae; strain AECL1089, MDR Clinical isolate (CDC CRE panel), CDC AR Bank 0154
In short: as §1

S. aureus = test: MIC broth microdilution (CLSI); details: for MIC: Staphylococcus aureus
In short: as §1

K. pneumoniae = test: MIC broth microdilution (CLSI)
In short: as §1

A. baumannii = test: MIC broth microdilution (CLSI); details: Acinetobacter baumannii
In short: as §1

K. aerogenes = test: MIC broth microdilution (CLSI); details: Klebsiella aerogenes; strain AEAE1042, MDR Clinical isolate (CDC CRE panel), CDC AR Bank 0161
In short: as §1

[2] = test system: AG-resistant Enterobacterales; test: Antibacterial surveillance of clinical isolates (MIC50/90)
In short: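 Broth microdilution per CLSI; CAMHB; 5×10^5 CFU/mL; 2-fold dilutions; 35° C, 18-24 h, ambient air. MIC endpoint OD 600 nm<0.05. US/EU SENTRY panels; MIC50/MIC90 per set.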

P. aeruginosa [3] = test: as above; details: Pseudomonas aeruginosa, 103 isolates
In short: (§2)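 SENTRY clinical isolates from the United States and Europe (1:1): 20 MSSA, 30 MRSA, 103 P. aeruginosa, plus 101 Enterobacterales with genetically defined aminoglycoside-resistance mechanisms. MICs came from CLSI broth microdilution; MIC50 and MIC90 are the values inhibiting ≥50% and ≥90% of isolates per set.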

[4] = test system: A. baumannii-calcoaceticus; test: as above; details: 100 isolates
In short: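 CLSI broth microdilution MIC in cation-adjusted Mueller-Hinton broth, final inoculum 5×10^5 CFU/mL, 35° C ambient air, 18-24 h; MIC = lowest concentration preventing visible growth (OD600 <0.05). SENTRY US/European clinical isolates, including genetically defined aminoglycoside-resistant sets; MIC50/MIC90 inhibit ≥50%/≥90% of isolates.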

[5] = test system: Methicillin-resistant S. aureus (MRSA); test: as above; details: Staphylococcus aureus, MRSA, 30 isolates
In short: as §2

[6] = test system: Methicillin-sensitive S. aureus (MSSA); test: as above; details: Staphylococcus aureus, MSSA, 20 isolates
In short: as §2

[7] = test system: AG-resistant P. aeruginosa; test: as above; details: Pseudomonas aeruginosa, 50 isolates with defined aminoglycoside resistance
In short: as §2

Q: What does the source list for `C[C@H](N)[C@@H]1CC[C@@H](N)[C@@H](O[C@@H]2[C@@H](N)[C@H](O)[C@@H](NC(=O)[C@@H](O)[C@H](F)CN)[C@H](O)[C@H]2O[C@@H]2O[C@H](CO)[C@@H](O[C@H]3O[C@@H](CN)[C@@H](O)[C@H](O)[C@H]3N)[C@H]2O)O1` [Compound 3, (2R,3R)-4-amino-N-((1R,2S,3S,4R,5R,6S)-3-amino-4-(((2R,3R,6S)-3-amino-6-((S)-1-aminoethyl)tetrahydro-2H-pyran-2-yl)oxy)-5-(((2S,3R,4S,5R)-4-(((2R,3R,4R,5S,6S)-3-amino-6-(aminomethyl)-4,5-dihydroxytetrahydro-2H-pyran-2-yl)oxy)-3-hydroxy-5-(hydroxymethyl)tetrahydrofuran-2-yl)oxy)-2,6-dihydroxycyclohexyl)-3-fluoro-2-hydroxybutanamide]?
A: MIC (P. mirabilis): < 16 µg/mL; MIC (S. enterica): < 16 µg/mL; MIC (E. coli; read-out: Activity (MIC), strain AECO1225, MDR Clinical isolate (CDC CRE panel), CDC AR Bank 0118): < 16 µg/mL; MIC (E. coli; read-out: Activity (MIC), strain AECO1226, MDR Clinical isolate (CDC CRE panel), CDC AR Bank 0119): < 16 µg/mL; MIC (E. coli; read-out: Activity (MIC), strain AECO1227, MDR Clinical isolate (CDC CRE panel), CDC AR Bank 0128): < 16 µg/mL; MIC (E. coli; read-out: Activity (MIC), strain NECO0003, ΔtolC): < 16 µg/mL; MIC (E. coli; read-out: Activity (MIC), strain NECO0245, ArmA): < 16 µg/mL; MIC (E. coli; strain NECO0001, WT QC, read-out: Activity (MIC)): < 16 µg/mL; MIC (E. coli; strain NECO0002, WT, read-out: Activity (MIC)): < 16 µg/mL; MIC (E. coli; strain NECO0243, empty vector, read-out: Activity (MIC)): < 16 µg/mL; MIC (E. coli; strain NECO0244, AAC(6')-Ib, read-out: Activity (MIC)): < 16 µg/mL; MIC (E. coli; strain NECO0289, APH(3')-Ia, read-out: Activity (MIC)): < 16 µg/mL; MIC (E. coli; strain NECO0302, AAC(3)-IIa, read-out: Activity (MIC)): < 16 µg/mL; MIC (E. coli; strain NECO0350, AAC(2')-I, read-out: Activity (MIC)): < 16 µg/mL; MIC (E. coli; strain NECO0359, ANT(4')-Ia, read-out: Activity (MIC)): < 16 µg/mL; MIC (P. aeruginosa [1]; read-out: Activity (MIC), strain NPAE0006, Efflux KO, Aph(3')-IIb): < 16 µg/mL; MIC (P. aeruginosa [1]; read-out: Activity (MIC), strain NPAE0010, MexXY over-expressed, Aph(3')-IIb): < 16 µg/mL; MIC (P. aeruginosa [1]; read-out: Activity (MIC), strain NPAE1288, MDR Clinical isolate): < 16 µg/mL; MIC (P. aeruginosa [1]; read-out: Activity (MIC), strain NPAE1293, MDR Clinical isolate): < 16 µg/mL; MIC (P. aeruginosa [1]; read-out: Activity (MIC), strain NPAE1299, MDR Clinical isolate): < 16 µg/mL; MIC (P. aeruginosa [1]; read-out: Activity (MIC), strain NPAE1302, MDR Clinical isolate): < 16 µg/mL; MIC (P. aeruginosa [1]; read-out: Activity (MIC), strain NPAE1303, MDR Clinical isolate): < 16 µg/mL; MIC (P. aeruginosa [1]; read-out: Activity (MIC), strain NPAE1308, MDR Clinical isolate): < 16 µg/mL; MIC (P. aeruginosa [1]; read-out: Activity (MIC), strain NPAE1310, MDR Clinical isolate): < 16 µg/mL; MIC (P. aeruginosa [1]; read-out: Activity (MIC), strain NPAE1313, MDR Clinical isolate): > 16 µg/mL; MIC (P. aeruginosa [1]; read-out: Activity (MIC), strain NPAE1316, MDR Clinical isolate): < 16 µg/mL; MIC (P. aeruginosa [1]; read-out: Activity (MIC), strain NPAE1323, MDR Clinical isolate): < 16 µg/mL; MIC (P. aeruginosa [1]; strain NPAE0001, WT Aph(3')-IIb, QC, read-out: Activity (MIC)): < 16 µg/mL; MIC (P. aeruginosa [1]; strain NPAE0002, WT Aph(3')-IIb, read-out: Activity (MIC)): < 16 µg/mL; MIC (P. aeruginosa [1]; strain NPAE0359, aph(3')-IIb KO (tetR), read-out: Activity (MIC)): < 16 µg/mL; MIC (C. freundii): < 16 µg/mL; MIC (E. cloacae): < 16 µg/mL; MIC (S. aureus; ATCC29213, strain NSAU001, wild-type, QC, ATCC 29213): < 16 µg/mL; MIC (S. aureus; strain NSAU1004, MDR Clinical isolate): < 16 µg/mL; Activity (MIC) (S. aureus; strain NSAU1015, MDR Clinical isolate): + (MIC threshold for positive activity (+) is ≤16 μg/mL); Activity (MIC) (S. aureus; strain NSAU1023, MDR Clinical isolate): + (MIC threshold for positive activity (+) is ≤16 μg/mL); Activity (MIC) (S. aureus; strain NSAU1063, MDR Clinical isolate): + (MIC threshold for positive activity (+) is ≤16 μg/mL); MIC (K. pneumoniae; Klebsiella pneumoniae, strain AKPN1246, MDR Clinical isolate (CDC CRE panel), CDC AR Bank 0139): < 16 µg/mL; Activity (MIC) (K. pneumoniae; strain AKPN1250, MDR Clinical isolate (CDC CRE panel), CDC AR Bank 0143): + (MIC threshold for positive activity (+) is ≤16 μg/mL); Activity (MIC) (K. pneumoniae; strain AKPN1253, MDR Clinical isolate (CDC CRE panel), CDC AR Bank 0148): + (MIC threshold for positive activity (+) is ≤16 μg/mL); Activity (MIC) (K. pneumoniae; strain AKPN1255, MDR Clinical isolate (CDC CRE panel), CDC AR Bank 0153): + (MIC threshold for positive activity (+) is ≤16 μg/mL); MIC (A. baumannii; read-out: Activity (MIC), strain NABA0007, ΔadeJK efflux): < 16 µg/mL; MIC (A. baumannii; read-out: Activity (MIC), strain NABA1427, MDR Clinical isolate): < 16 µg/mL; MIC (A. baumannii; read-out: Activity (MIC), strain NABA1433, MDR Clinical isolate): < 16 µg/mL; MIC (A. baumannii; read-out: Activity (MIC), strain NABA1434, MDR Clinical isolate): < 16 µg/mL; MIC (A. baumannii; read-out: Activity (MIC), strain NABA1436, MDR Clinical isolate): < 16 µg/mL; MIC (A. baumannii; read-out: Activity (MIC), strain NABA1437, MDR Clinical isolate): < 16 µg/mL; MIC (A. baumannii; read-out: Activity (MIC), strain NABA1438, MDR Clinical isolate): < 16 µg/mL; MIC (A. baumannii; read-out: Activity (MIC), strain NABA1439, MDR Clinical isolate): < 16 µg/mL; MIC (A. baumannii; read-out: Activity (MIC), strain NABA1448, MDR Clinical isolate): < 16 µg/mL; MIC (A. baumannii; read-out: Activity (MIC), strain NABA1449, MDR Clinical isolate): < 16 µg/mL; MIC (A. baumannii; read-out: Activity (MIC), strain NABA1450, MDR Clinical isolate): < 16 µg/mL; MIC (A. baumannii; strain NABA0006, WT parent, read-out: Activity (MIC)): < 16 µg/mL; MIC (A. baumannii; strain NABA0020, AME negative strain, read-out: Activity (MIC)): < 16 µg/mL; MIC (K. aerogenes): < 16 µg/mL; MIC50 [2]: < 16 µg/mL; MIC90 [2]: < 16 µg/mL; MIC50 (P. aeruginosa [3]; read-out: MIC50): < 16 µg/mL; MIC90 (P. aeruginosa [3]; read-out: MIC90): < 16 µg/mL; MIC50 ([4]; read-out: MIC50): < 16 µg/mL; MIC90 ([4]; read-out: MIC90): < 16 µg/mL; MIC50 ([5]; read-out: MIC50): < 16 µg/mL; MIC90 ([5]; read-out: MIC90): < 16 µg/mL; MIC50 ([6]; read-out: MIC50): < 16 µg/mL; MIC90 ([6]; read-out: MIC90): < 16 µg/mL; MIC50 ([7]; read-out: MIC50): < 16 µg/mL; MIC90 ([7]; read-out: MIC90): < 16 µg/mL
